# Source: ChEMBL document CHEMBL5042544, “Discovery of a Potent and Selective ATAD2 Bromodomain Inhibitor with Antiproliferative Activity in Breast Cancer Models” (J Med Chem, 2022)
# Legend:
# [1] = target: T1, Bromodomain-containing protein 4 (Homo sapiens, UniProt O60885); test: Displacement of Alexafluor 647-JQ1 from GST-BRD4 BD1 BD2 (44 to 460 residues) (unknown origin) incubated for 60 mins by fluorescence polarization assay
# [2] = Distribution coefficient, logD of compound at pH 7.4; format: physicochemical; conditions: octanol/water
# [3] = target: T2, ATPase family AAA domain-containing protein 2 (Homo sapiens, UniProt Q6PL18); test: Inhibition of GST-ATAD2 BD (951 to 1132 residues) (unknown origin) expressed in Escherichia coli BL21 (DE3) and biotinylated tetra-acetylated histone H4 peptides as substrate incubated for 30 mins by TR-FRET assay
# T2 sequence (Q6PL18 whole entry): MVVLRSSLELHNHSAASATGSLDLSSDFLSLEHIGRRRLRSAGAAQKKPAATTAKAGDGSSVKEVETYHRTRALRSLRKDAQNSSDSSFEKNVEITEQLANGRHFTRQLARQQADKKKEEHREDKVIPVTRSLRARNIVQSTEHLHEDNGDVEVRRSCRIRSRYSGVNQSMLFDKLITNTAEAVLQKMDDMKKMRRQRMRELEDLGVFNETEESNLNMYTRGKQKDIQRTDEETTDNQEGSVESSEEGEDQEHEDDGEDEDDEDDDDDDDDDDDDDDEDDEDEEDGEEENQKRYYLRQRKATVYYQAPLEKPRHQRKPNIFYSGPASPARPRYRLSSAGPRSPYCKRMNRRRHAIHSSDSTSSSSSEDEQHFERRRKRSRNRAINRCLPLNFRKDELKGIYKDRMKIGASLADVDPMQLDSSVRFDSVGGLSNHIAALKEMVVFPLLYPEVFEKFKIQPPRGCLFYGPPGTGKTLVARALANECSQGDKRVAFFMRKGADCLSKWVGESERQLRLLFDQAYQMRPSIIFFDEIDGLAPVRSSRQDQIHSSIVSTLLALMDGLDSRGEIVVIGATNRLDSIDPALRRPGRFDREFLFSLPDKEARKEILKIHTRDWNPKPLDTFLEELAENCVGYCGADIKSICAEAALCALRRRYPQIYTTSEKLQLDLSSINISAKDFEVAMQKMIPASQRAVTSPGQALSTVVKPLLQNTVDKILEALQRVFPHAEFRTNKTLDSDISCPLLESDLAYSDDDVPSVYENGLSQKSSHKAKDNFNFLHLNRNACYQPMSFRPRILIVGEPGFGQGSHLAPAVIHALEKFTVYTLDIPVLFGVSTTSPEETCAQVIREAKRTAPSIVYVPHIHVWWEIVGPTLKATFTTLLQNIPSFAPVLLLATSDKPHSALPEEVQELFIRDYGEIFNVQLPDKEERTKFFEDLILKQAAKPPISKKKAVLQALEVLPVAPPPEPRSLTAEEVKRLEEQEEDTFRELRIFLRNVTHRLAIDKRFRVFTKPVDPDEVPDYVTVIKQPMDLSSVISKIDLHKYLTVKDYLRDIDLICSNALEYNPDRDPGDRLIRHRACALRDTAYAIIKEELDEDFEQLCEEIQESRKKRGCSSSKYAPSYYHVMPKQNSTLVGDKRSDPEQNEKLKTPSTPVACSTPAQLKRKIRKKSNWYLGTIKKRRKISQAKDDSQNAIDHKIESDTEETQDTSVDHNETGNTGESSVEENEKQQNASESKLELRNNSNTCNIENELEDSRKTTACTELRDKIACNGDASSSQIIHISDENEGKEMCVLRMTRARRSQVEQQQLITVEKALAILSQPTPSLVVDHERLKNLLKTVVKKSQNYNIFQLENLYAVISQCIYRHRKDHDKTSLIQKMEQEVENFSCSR
# [4] = target: T2, ATPase family AAA domain-containing protein 2; test: Inhibition of GST-ATAD2 BD (951 to 1132 residues) (unknown origin) expressed in Escherichia coli BL21 (DE3) and biotinylated tetra-acetylated histone H4 peptides as substrate by TR-FRET artifact assay
# Homo sapiens = species: Homo sapiens; test: Selectivity ratio of IC50 for Inhibition of […] GST-ATAD2 BD (981 to 1108 residues) (unknown origin) expressed in Escherichia coli BL21 (DE3) to IC50 for Halo-tagged Histone H3.3 from Nanoluc-ATAD2 BD ([…] residues) (unknown origin) transfected in human HCT116 cells
# [5] = target: T2, ATPase family AAA domain-containing protein 2; test: Displacement of Halo-tagged Histone H3.3 from Nanoluc-ATAD2A BD (962 to 1119 residues) (unknown origin) transfected in human HCT116 cells incubated for 18 hrs by NanoBRET assay; format: cell-based, HCT-116
# [6] = target: T2, ATPase family AAA domain-containing protein 2; test: Displacement of Halo-tagged Histone H3.3 from Nanoluc-ATAD2 BD (962 to 1119 residues) (unknown origin) transfected in human HCT116 cells incubated for 18 hrs in presence of efflux inhibitor elacridar by NanoBRET assay; format: cell-based, HCT-116
# [7] = target: T2, ATPase family AAA domain-containing protein 2; test: Displacement of Halo-tagged Histone H3.3 from Nanoluc-ATAD2 BD (962 to 1119 residues) (unknown origin) transfected in human HCT116 cells incubated for 18 hrs in presence of efflux inhibitor reversan by NanoBRET assay; format: cell-based, HCT-116
# [8] = target: T1, Bromodomain-containing protein 4; test: Displacement of Halo-tagged Histone H3.3 from Nanoluc-BRD4 BD1/BD2 (44 to 460 residues) (unknown origin) transfected in human HCT116 cells incubated for 18 hrs by NanoBRET assay; format: cell-based, HCT-116
# [9] = target: T2, ATPase family AAA domain-containing protein 2; test: Displacement of Halo-tagged Histone H3.3 from Nanoluc-ATAD2 BD (962 to 1119 residues) (unknown origin) transfected in human HCT116 cells incubated for 18 hrs in presence of efflux inhibitor verapamil by NanoBRET assay; format: cell-based, HCT-116
# [10] = target: T2, ATPase family AAA domain-containing protein 2; test: Inhibition of GST-ATAD2 BD (981 to 1108 residues) (unknown origin) expressed in Escherichia coli BL21 (DE3) and biotinylated tetra-acetylated histone H4 peptides as substrate incubated for 30 mins by TR-FRET assay
# MDA-MB-231 = test: Antiproliferative activity against human MDA-MB-231 cells assessed as inhibition of proliferation after 72 hrs; format: functional
Compound,IC50 [1] [µM],logD [2],IC50 [3] [µM],IC50 [4] [µM],IC50 [5] [µM],IC50 [6] [µM],IC50 [7] [µM],IC50 [8] [µM],IC50 [9] [µM],IC50 [10] [µM],GI50 (MDA-MB-231) [µM],Ratio IC50 (Homo sapiens)
Cn1cc(C(=O)N2[C@H]3Cc4ccccc4[C@@H]2CNC3=O)c2c([nH]c3ccccc32)c1=O,7.94,2,0.42,> 25.1,,,,,,,,
Cc1nnc2c(NC3CCN(C)CC3)nc(C(=O)N3[C@H]4Cc5ccccc5[C@@H]3CNC4=O)cn12,,-0.3,> 20,,,,,,,,,
CO[C@H]1CNC[C@@H](OCC2CCC(F)(F)CC2)[C@@H]1Nc1ncc(-c2cncc(C)c2)c2cc(C)c(=O)[nH]c12,,2.7,,,,,,,,,,
COc1cc(C(=O)N2[C@H]3Cc4ccccc4[C@@H]2CNC3=O)cc2c(C)n[nH]c12,> 31.6,2,4.88,> 251,,,,,,,,
CN1C[C@H]2c3ccccc3C[C@@H](C1=O)N2C(=O)c1cn(C)c(=O)c2[nH]ccc12,7.94,0.9,3.56,> 25.1,,,,,,,,
Cc1cc(C(=O)N2[C@H]3Cc4ccccc4[C@@H]2CNC3=O)c[nH]c1=O,> 31.6,0.3,26.3,> 25.1,,,,,,,,
Cc1nnc2c(N)cc(C(=O)N3[C@H]4Cc5ccccc5[C@@H]3CNC4=O)cn12,> 31.6,0.1,6.08,> 25.1,,,,,,,,
COc1cc(C(=O)N2C3Cc4ccccc4C2CNC3=O)cc(OC)c1O (stereo unspecified),> 31.6,0.9,20.2,> 25.1,,,,,,,,
CNc1cc(C(=O)N2[C@H]3Cc4ccccc4[C@@H]2CNC3=O)cn(C)c1=O,,0.5,11.8,> 25.1,,,,,,,,
CC1=C(C#N)c2nc(N)c(C#N)c(C)c2/C1=C\c1ccc(-c2cc(C(=O)O)ccc2Cl)o1,,,,,,,,,,3.16,1,
Cn1cc(C(=O)N2[C@H]3Cc4ccccc4[C@@H]2CNC3=O)cc(N)c1=O,> 31.6,0,34.3,> 25.1,,,,,,,,
Cn1cc(C(=O)N2[C@H]3Cc4ccccc4[C@@H]2CNC3=O)c2cc[nH]c2c1=O,15.8,0.7,1.48,> 25.1,,,,,,,,
COc1cc(C(=O)N2[C@H]3Cc4ccccc4[C@@H]2CNC3=O)cc(OC)c1O,> 31.6,0.9,21.2,> 25.1,,,,,,,,
CC(C)[C@H]1NC(=O)[C@@H]2Cc3ccccc3[C@H]1N2C(=O)c1cn(C)c(=O)c2[nH]c3ccccc3c12,> 31.6,2.6,0.44,> 25.1,,,,,,,,

# More lines, main results first:
IC50 [1] [µM],logD [2],IC50 [3] [µM],IC50 [4] [µM],IC50 [5] [µM],IC50 [6] [µM],IC50 [7] [µM],IC50 [8] [µM],IC50 [9] [µM],IC50 [10] [µM],GI50 (MDA-MB-231) [µM],Compound,Ratio IC50 (Homo sapiens)
25.1,0.8,0.28,> 25.1,,,,,,,,Cc1nnc2c(N)cc(C(=O)N3[C@H]4Cc5ccccc5[C@@H]3CNC4=O)nn12,
> 31.6,-0.5,0.37,> 25.1,,,,,,,,Cc1nnc2c(NC3CCN(C)CC3)cc(C(=O)N3[C@H]4Cc5ccccc5[C@@H]3CNC4=O)cn12,
> 31.6,3.4,0.078,> 25.1,1.26,0.794,0.794,126,0.501,,,C[C@H]1NC(=O)[C@@H]2Cc3ccccc3[C@H]1N2C(=O)c1cn(C)c(=O)c2[nH]c3ccc(OC(F)(F)F)cc3c12,16
> 31.6,0.2,0.3,> 25.1,2.51,,,31.6,,0.0316,,Cc1nnc2c(NC3CCN(C)CC3)cc(C(=O)N3[C@H]4Cc5ccccc5[C@@H]3CNC4=O)nn12,79
> 31.6,-0.3,0.041,> 25.1,,,,,,,,Cc1nnc2c(NCCCN3CCCC3)cc(C(=O)N3[C@H]4Cc5ccccc5[C@@H]3CNC4=O)nn12,
> 31.6,3,0.022,> 25.1,0.501,0.501,0.501,50.1,0.501,,,Cc1nnc2c(NC3CCN(CC(C)(F)F)CC3)cc(C(=O)N3[C@@H]4c5ccccc5C[C@H]3C(=O)N[C@@H]4C(C)C)nn12,25
> 31.6,3,0.02,> 25.1,1.26,,,31.6,,,,Cc1nnc2c(NCCCN3CCC(F)(F)CC3)cc(C(=O)N3[C@@H]4c5ccccc5C[C@H]3C(=O)N[C@@H]4C(C)C)nn12,63
25.1,0.5,0.014,> 25.1,2,,,25.1,,,,Cc1nnc2c(NCCCN3CCCC3)cc(C(=O)N3[C@@H]4c5ccccc5C[C@H]3C(=O)N[C@@H]4C(C)C)nn12,126
31.6,1.9,0.21,> 25.1,,,,,,,,C[C@H]1NC(=O)[C@@H]2Cc3ccccc3[C@H]1N2C(=O)c1cn(C)c(=O)c2[nH]c3ccccc3c12,
